Consider 38 molecules from patent US10111875B2, “Pyrrolopyrimidine compounds and uses thereof” (HUTCHISON MEDIPHARMA LIMITED, priority 2010, dated 2018).

The IC50 is the point on the concentration scale where inhibition reaches its midpoint. A word on the inhibition: it is the drop in the measured response relative to a control, in per cent.

Assay [1] concerns IL-3-induced STAT5 phosphorylation, TF-1 cells. In words: IL-3-induced STAT5 phosphorylation in TF-1 cells. Type of assay: cell-based, human. The following applies: IL-3 stimulation, read-out: pSTAT5 (IC50). On the procedure: For the determination of IL-3-induced STAT5 phosphorylation, TF-1 cells (ATCC) are plated in 96 well plates at 1×10^4 cells per well in 10% FBS RPMI-1640 media at 37° C., 5% CO2 for 3 hours. Cells were incubated in the presence or absence of various concentrations of diluted compound for 30 min at 37° C., 5% CO2. Cells were stimulated by adding 10 ng/ml human recombinant IL-3 to each well for 30 minutes at 37° C., 5% CO2. Cells are then fixed in 2% paraformaldehyde for 45 minutes at room temperature and incubated in ice-cold methanol for 30 minutes. After washing in PBS, cells are incubated with rabbit anti-phospho-STAT5 (Y694) (Cell Signaling Technologies, 1:1000 in antibody dilution solution) primary antibody overnight at 4° C. Goat anti-rabbit IgG Alexa 488 (Invitrogen, 1:1,000 dilution in PBS) secondary antibody is added for 90 minutes prior to PBS washes. Cells are counted following incubation in a 7.5 uM propidium iodide, 100 µg/ml RNaseA, PBS solution for 60 minutes in the dark. Plates are read on an Acumen X3 instrument (TPP Labtech).
(§1) Percent inhibition is calculated using the following formula: Inhibition (%)=100−((inhibitor treatment−cell)/(stimulator−cell))×100
(§2) where: Inhibitor treatment represents cell activation percentage of wells treated by both compound and stimulator (IL-6, IL-3 or IL-4); Cell represents the cell activation percentage of wells treated by neither compound nor stimulator (IL-6, IL-3 or IL-4). Stimulator represents the cell activation percentage of wells treated by stimulator (IL-6, IL-3 or IL-4) only.

Assay [2] concerns IL-6-induced STAT3 phosphorylation, HepG2 cells. Nature of the assay: IL-6-induced STAT3 phosphorylation in HepG2 cells. Type of assay: cell-based, human. The note with it: IL-6 stimulation, read-out: pSTAT3 (IC50). On the procedure:
For the determination of IL-6-induced STAT3 phosphorylation, HepG2 cells (SIBS) are seeded in 96 well plates at […] cells per well in Serum Free DMEM media overnight and incubated in the presence or absence of various concentrations of diluted compound for 30 min at 37° C., 5% CO2. Cells were stimulated by adding 10 ng/ml human recombinant IL-6 to each well for 15 minutes at 37° C., 5% CO2. Cells are then fixed in 2% paraformaldehyde for 45 minutes at room temperature and incubated in ice-cold methanol for 30 minutes. After washing in PBS, cells are incubated with rabbit anti-phospho-STAT3 (Y705) (Cell Signaling Technologies, 1:1000 in antibody dilution solution) primary antibody overnight at 4° C. Goat anti-rabbit IgG Alexa 488 (Invitrogen, 1:1,000 dilution in PBS) secondary antibody is added for 90 minutes prior to PBS washes. Cells are counted following incubation in a 7.5 uM propidium iodide, 100 μg/ml RNaseA, PBS solution for 60 minutes in the dark. Plates are read on an Acumen X3 instrument (TPP Labtech).
as §1, §2

The test system of assay [3] is IL-4-induced STAT6 phosphorylation, Ramos cells. In words: IL-4-induced STAT6 phosphorylation in Ramos cells. Type of assay: cell-based. The following applies: Homo sapiens, IL-4 stimulation, read-out: pSTAT6 (IC50). On the procedure: For the determination of IL-4-induced STAT6 phosphorylation, Ramos cells (ATCC) are plated in 96 well plates at 1.0×10^4 cells per well 10% FBS RPMI-1640 and incubated at 37° C., 5% CO2 for 3 hours. Cells were incubated with compounds for 30 minutes prior to stimulation with interleukin-4 (10 ng/ml final) for an additional 30 minutes. Cells are then fixed in 2% paraformaldehyde for 45 minutes and incubated in ice-cold methanol for 30 minutes. After washing in PBS, cells are incubated with rabbit anti-phospho-STAT6 (Y641) (Cell Signaling Technologies, 1:1000 in antibody dilution solution) primary antibody overnight at 4° C. Goat anti-rabbit IgG Alexa 488 (Invitrogen, 1:1,000 dilution in PBS) secondary antibody is added for 90 minutes prior to PBS washes. Cells are counted following incubation in a 7.5 uM propidium iodide, 100 µg/ml RNaseA, PBS solution for 60 minutes in the dark. Plates are read on an Acumen X3 instrument (TPP Labtech).
as §1, §2

In assay [4] the target is Recombinant human JAK1 catalytic domain (Homo sapiens (Human), UniProt P23458). In words: JAK1 kinase assay (Z'-LYTE Tyr 6 Peptide). Type of assay: biochemical. The following applies: read-out: inhibition percentage (IR %). On the procedure: JAK1/2/3 kinase assay are performed in vitro using Kit-Tyr 6 Peptide (Invitrogen, Cat. No. PV4122). TYK2 kinase assay are performed in vitro using Z′-LYTE™ Kinase Assay Kit-Tyr 3 Peptide (Invitrogen, Cat. No. PV3192). […] All compounds are initially tested at 8 different concentrations (1 μM down to 0.0003 μM) using a 1:3 serial dilution scheme.

[5] abbreviates: JAK1 kinase assay, 0.3 uM concentration.

Like-named read-outs stand apart in the source and are kept apart here.

Recombinant human JAK1 catalytic domain, sequence (P23458 875-1153): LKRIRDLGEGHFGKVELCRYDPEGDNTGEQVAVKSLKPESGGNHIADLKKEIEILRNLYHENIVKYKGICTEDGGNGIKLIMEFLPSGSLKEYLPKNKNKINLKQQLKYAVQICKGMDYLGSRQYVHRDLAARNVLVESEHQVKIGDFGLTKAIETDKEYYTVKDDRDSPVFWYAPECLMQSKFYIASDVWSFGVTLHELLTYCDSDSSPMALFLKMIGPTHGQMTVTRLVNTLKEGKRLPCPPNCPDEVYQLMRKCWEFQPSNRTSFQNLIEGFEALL

`CNS(=O)(=O)N(C)[C@@H]1CCN(c2ncnc3[nH]ccc23)C1` [Compound 47]: the IC50 was 1490 nM in assay [1] (Homo sapiens), 824 nM in assay [2] (Homo sapiens) and 1150 nM in assay [3]. In addition, in assay [4] (setting [5]), the inhibition at 0.3 µM is 50 to 100%.

Take `CN(c1ccc(C#N)c(F)c1)[C@@H]1CCN(c2ncnc3[nH]ccc23)C1` [Compound 105]: the concentration for half-maximal inhibition (IC50) in assay [1] (Homo sapiens) was determined as 1680 nM; in assay [2] (Homo sapiens) it was 9 nM. The inhibition at 0.3 µM in assay [4] (setting [5]) was in the range of 50 to 100%.

As for `CN(c1ncc(C#N)cn1)[C@@H]1CCN(c2ncnc3[nH]ccc23)C1` [Compound 142, (R)-2-((1-(7H-pyrrolo[2,3-d]pyrimidin-4-yl)pyrrolidin-3-yl)(methyl)amino)pyrimidine-5-carbonitrile], the IC50 in assay [1] (Homo sapiens) was found to be 3070 nM; in assay [2] (Homo sapiens), 65 nM; in assay [3], 336 nM. Also, the inhibition at 0.3 µM in assay [4] lay in the range of 20 to 50%.

With `CN(c1ccc(C(=O)Nc2nccs2)cn1)[C@@H]1CCN(c2ncnc3[nH]ccc23)C1` [Compound 199], the IC50 in assay [1] amounted to 7550 nM; in assay [2], 50 nM.

As to `Cc1ccc(CS(=O)(=O)Nc2ccc(N(C)[C@@H]3CCN(c4ncnc5[nH]ccc45)C3)nc2)cc1` [Compound 222], in assay [4] (setting [5]), the inhibition at 0.3 µM fell in the range of 50 to 100%.

For the molecule `CN(c1ccc(NS(=O)(=O)Cc2ccccc2Cl)cn1)[C@@H]1CCN(c2ncnc3[nH]ccc23)C1` [Compound 223], the inhibition at 0.3 µM in assay [4] (setting [5]) was 50 to 100%.

Turning to `CN(c1ccc(NS(=O)(=O)Cc2cccc(Cl)c2)cn1)[C@@H]1CCN(c2ncnc3[nH]ccc23)C1` [Compound 224], in assay [4] (setting [5]), the inhibition at 0.3 µM fell in the range of 50 to 100%.

For `CN(c1ccc(NS(=O)(=O)Cc2ccc(Cl)cc2)cn1)[C@@H]1CCN(c2ncnc3[nH]ccc23)C1` [Compound 225], the inhibition at 0.3 µM in assay [4] (setting [5]) lay within 50 to 100%.

For `CN(c1ccc(NC(=O)c2cccc(F)c2)cn1)[C@@H]1CCN(c2ncnc3[nH]ccc23)C1` [Compound 226], the inhibition at 0.3 µM in assay [4] (setting [5]) was in the range of 50 to 100%.

For the molecule `CN(c1ccc(NC(=O)c2ccccc2Cl)cn1)[C@@H]1CCN(c2ncnc3[nH]ccc23)C1` [Compound 227], the inhibition at 0.3 µM in assay [4] (setting [5]) lay in the range of 50 to 100%.

`COCC(=O)Nc1ccc(N(C)[C@@H]2CCN(c3ncnc4[nH]ccc34)C2)nc1` [Compound 228]: the inhibition at 0.3 µM in assay [4] (setting [5]) lay within 20 to 50%.

For the molecule `CN(c1ccc(NC(=O)C2CC2)cn1)[C@@H]1CCN(c2ncnc3[nH]ccc23)C1` [Compound 229], the inhibition at 0.3 µM in assay [4] (setting [5]) was in the range of 50 to 100%.

As to `CN(c1ccc(NCc2ccc(F)cc2)cn1)[C@@H]1CCN(c2ncnc3[nH]ccc23)C1` [Compound 230, (R)—N^5-(4-fluorobenzyl)-N^2-(1-(7H-pyrrolo[2,3-d]pyrimidin-4-yl)pyrrolidin-3-yl)-N^2-methylpyridine-2,5-diamine], the inhibition at 0.3 µM in assay [4] was in the range of 50 to 100%.

Regarding `CN(c1ccc(S(=O)(=O)NC2c3ccccc3C[C@H]2O)cn1)[C@@H]1CCN(c2ncnc3[nH]ccc23)C1` (some centres unmarked) [Compound 232], in assay [4] (setting [5]), the inhibition at 0.3 µM was 20 to 50%.

For the molecule `CN(c1ccc(S(=O)(=O)NCC2CC2)cn1)[C@@H]1CCN(c2ncnc3[nH]ccc23)C1` [Compound 235], the inhibition at 0.3 µM in assay [4] (setting [5]) was 50 to 100%.

Regarding `CN(c1ccc(S(=O)(=O)NC2CC2)cn1)[C@@H]1CCN(c2ncnc3[nH]ccc23)C1` [Compound 236], in assay [4] (setting [5]), the inhibition at 0.3 µM was 50 to 100%.

In the case of `COCCNS(=O)(=O)c1ccc(N(C)[C@@H]2CCN(c3ncnc4[nH]ccc34)C2)nc1` [Compound 237], the inhibition at 0.3 µM in assay [4] (setting [5]) was 50 to 100%.

As for `CN(c1ccc(S(=O)(=O)NC(C)(C)C)cn1)[C@@H]1CCN(c2ncnc3[nH]ccc23)C1` [Compound 238], the inhibition at 0.3 µM in assay [4] (setting [5]) fell in the range of 50 to 100%.

Take `CNS(=O)(=O)c1ccc(N(C)[C@@H]2CCN(c3ncnc4[nH]ccc34)C2)nc1` [Compound 239]: the inhibition at 0.3 µM in assay [4] (setting [5]) was 50 to 100%.

Consider `CCNS(=O)(=O)c1ccc(N(C)[C@@H]2CCN(c3ncnc4[nH]ccc34)C2)nc1` [Compound 240], for which the inhibition at 0.3 µM in assay [4] (setting [5]) was in the range of 50 to 100%.

Take `CN(c1ccc(S(=O)(=O)NC2COC2)cn1)[C@@H]1CCN(c2ncnc3[nH]ccc23)C1` [Compound 242]: the inhibition at 0.3 µM in assay [4] (setting [5]) lay in the range of 50 to 100%.

For the molecule `CN(c1ccc(S(=O)(=O)NCCO)cn1)[C@@H]1CCN(c2ncnc3[nH]ccc23)C1` [Compound 243], the inhibition at 0.3 µM in assay [4] (setting [5]) was 50 to 100%.

With `C[C@@H](O)CNS(=O)(=O)c1ccc(N(C)[C@@H]2CCN(c3ncnc4[nH]ccc34)C2)nc1` [Compound 244], the inhibition at 0.3 µM in assay [4] (setting [5]) fell in the range of 50 to 100%.

For `C[C@H](O)CNS(=O)(=O)c1ccc(N(C)[C@@H]2CCN(c3ncnc4[nH]ccc34)C2)nc1` [Compound 245], the inhibition at 0.3 µM in assay [4] (setting [5]) lay within 50 to 100%.

With `CN(c1ccc(S(=O)(=O)NC2CCC[C@@H]2O)cn1)[C@@H]1CCN(c2ncnc3[nH]ccc23)C1` (some centres unmarked) [Compound 246], the inhibition at 0.3 µM in assay [4] (setting [5]) was in the range of 50 to 100%.

With `CN(c1ccc(S(=O)(=O)N2CCCC2)cn1)[C@@H]1CCN(c2ncnc3[nH]ccc23)C1` [Compound 247], the inhibition at 0.3 µM in assay [4] (setting [5]) was 50 to 100%.

As to `CN(C)CCNS(=O)(=O)c1ccc(N(C)[C@@H]2CCN(c3ncnc4[nH]ccc34)C2)nc1` [Compound 248], the inhibition at 0.3 µM in assay [4] (setting [5]) was 50 to 100%.

`COCC1CCCN1S(=O)(=O)c1ccc(N(C)[C@@H]2CCN(c3ncnc4[nH]ccc34)C2)nc1` (some centres unmarked) [Compound 249]: the inhibition at 0.3 µM in assay [4] (setting [5]) lay within 50 to 100%.

As for `CN(c1ccc(S(=O)(=O)Nc2ccn(C)n2)cn1)[C@@H]1CCN(c2ncnc3[nH]ccc23)C1` [Compound 250], the inhibition at 0.3 µM in assay [4] (setting [5]) is 20 to 50%.

Consider `CN(c1ccc(S(=O)(=O)N2CCNCC2)cn1)[C@@H]1CCN(c2ncnc3[nH]ccc23)C1` [Compound 251], for which, in assay [4] (setting [5]), the inhibition at 0.3 µM is 50 to 100%.

As to `CN(c1ccc(S(=O)(=O)N2CCOCC2)cn1)[C@@H]1CCN(c2ncnc3[nH]ccc23)C1` [Compound 252], the inhibition at 0.3 µM in assay [4] (setting [5]) lay in the range of 50 to 100%.

Take `CN(c1ccc(S(=O)(=O)Nc2ccc(F)cc2)cn1)[C@@H]1CCN(c2ncnc3[nH]ccc23)C1` [Compound 253]: the inhibition at 0.3 µM in assay [4] (setting [5]) was 50 to 100%.

`CN(c1ccc(S(=O)(=O)NCc2ccc(F)cc2)cn1)[C@@H]1CCN(c2ncnc3[nH]ccc23)C1` [Compound 254]: the inhibition at 0.3 µM in assay [4] (setting [5]) lay in the range of 50 to 100%.

In the case of `C[C@@H](NS(=O)(=O)c1ccc(N(C)[C@@H]2CCN(c3ncnc4[nH]ccc34)C2)nc1)c1ccc(F)cc1` [Compound 255], the inhibition at 0.3 µM in assay [4] (setting [5]) lay within 50 to 100%.

Take `C[C@H](NS(=O)(=O)c1ccc(N(C)[C@@H]2CCN(c3ncnc4[nH]ccc34)C2)nc1)c1ccc(F)cc1` [Compound 256]: the inhibition at 0.3 µM in assay [4] (setting [5]) lay within 50 to 100%.

`CN(c1ccc(S(=O)(=O)NC[C@@H]2CCCO2)cn1)[C@@H]1CCN(c2ncnc3[nH]ccc23)C1` [Compound 257]: the inhibition at 0.3 µM in assay [4] (setting [5]) was in the range of 20 to 50%.

Consider `CN(c1ccc(S(=O)(=O)NC2CCOCC2)cn1)[C@@H]1CCN(c2ncnc3[nH]ccc23)C1` [Compound 259], for which, in assay [4] (setting [5]), the inhibition at 0.3 µM lay in the range of 50 to 100%.

Turning to `CN(c1ccc(C#N)c(O)n1)[C@@H]1CCN(c2ncnc3[nH]ccc23)C1` [Compound 260], the inhibition at 0.3 µM in assay [4] (setting [5]) fell in the range of 50 to 100%.
